In paper PMC3782002 (Journal of Chemical Information and Modeling, 2013):

Columns and labels:
Format in all cases: biochemical, B. subtilis
[1] = molecular target: T1, GR-N75A (Bacillus subtilis, UniProt P94556, N75A); test: Coupled-enzyme IC50 assay; settings: N75A mutation
T1 sequence (P94556 1-272 N75A): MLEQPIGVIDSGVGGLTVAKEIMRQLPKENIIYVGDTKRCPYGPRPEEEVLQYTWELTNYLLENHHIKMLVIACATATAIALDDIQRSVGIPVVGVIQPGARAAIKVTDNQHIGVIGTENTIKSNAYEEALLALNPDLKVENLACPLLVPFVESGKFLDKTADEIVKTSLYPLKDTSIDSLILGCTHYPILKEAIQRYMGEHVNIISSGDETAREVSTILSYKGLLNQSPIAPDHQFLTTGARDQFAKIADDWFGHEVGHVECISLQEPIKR

[2] = molecular target: T2, GR-N75L (Bacillus subtilis, UniProt P94556, N75L); test: Coupled-enzyme IC50 assay; settings: N75L mutation
T2 sequence (P94556 1-272 N75L): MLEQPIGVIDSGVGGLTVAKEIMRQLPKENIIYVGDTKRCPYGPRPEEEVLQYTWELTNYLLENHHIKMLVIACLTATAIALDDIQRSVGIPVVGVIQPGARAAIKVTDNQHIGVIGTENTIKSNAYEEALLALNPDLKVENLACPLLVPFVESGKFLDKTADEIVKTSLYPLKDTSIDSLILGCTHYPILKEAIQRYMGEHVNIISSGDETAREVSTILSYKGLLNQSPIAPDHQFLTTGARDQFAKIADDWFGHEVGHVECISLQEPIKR

[3] = molecular target: T1, GR-N75A; test: Steady-state kinetics of D- to L- racemization by circular dichroism at 220 nm
[4] = molecular target: T2, GR-N75L; test: as above
[5] = substrate: N[C@H](CCC(=O)O)C(=O)O; test: as above; settings: other: GR-WT, 25 °C, pH 8.0

With O=S(=O)(O)c1nc2ccccc2[nH]1 [Compound 1, 1H-benzimidazole-2-sulfonic acid] the “increase in IC50 compared to the IC50 for wild-type GR” value [1] was 600% and the “increase in IC50 compared to the IC50 for wild-type GR” value [2] was 50%.

N[C@H](CCC(=O)O)C(=O)O [Compound 3, D-glutamate] was tested, and the kcat [3] was 45.6 ± 1.9 s⁻¹, the Km ([3]; 25 °C) was 730 ± 90 µM and the kcat [4] was 0.15 ± 0.01 s⁻¹. The Km ([4]; 25 °C) was 490 ± 100 µM.

B1: GR-WT (Bacillus subtilis subsp. subtilis str. 168) (protein)
chain: MLEQPIGVIDSGVGGLTVAKEIMRQLPKENIIYVGDTKRCPYGPRPEEEVLQYTWELTNYLLENHHIKMLVIACNTATAIALDDIQRSVGIPVVGVIQPGARAAIKVTDNQHIGVIGTENTIKSNAYEEALLALNPDLKVENLACPLLVPFVESGKFLDKTADEIVKTSLYPLKDTSIDSLILGCTHYPILKEAIQRYMGEHVNIISSGDETAREVSTILSYKGLLNQSPIAPDHQFLTTGARDQFAKIADDWFGHEVGHVECISLQEPIKR
Molecule B1 has a kcat [5] of 1.64 ± 0.03 s⁻¹ and a kcat/Km [5] of 12600 ± 80 M⁻¹ s⁻¹.
